Measured values as given in doi:10.1101/2025.01.28.635346v1 (bioRxiv, 2025).
Bridge positions count the residues as written; N and C are the ends. Side chains are listed from the residue outwards. Peptide text beside a SMILES is read from it. * marks the point of attachment. Butanoyl(4-(4-I-phenyl)) = O=C(CCCc1ccc(I)cc1)*; PEG2 = NCCOCCOCCC(=O)O

Assay: Tissue distribution in female Balb/c mice
Assay type: in vivo, mouse
Conditions: for Brain concentration / Colon concentration / Kidneys concentration / Liver concentration / Mammary concentration / Ovaries concentration / Plasma Concentration / Lungs concentration: Balb/c mice
[1] = 3 hr, Mouse 1 (individual animal)
[2] = 3 hr, Mouse 2 (individual animal)
[3] = 3 hr, Mouse 3 (individual animal)
[4] = 8 hr, Mouse 1 (individual animal)
[5] = 8 hr, Mouse 2 (individual animal)
[6] = 8 hr, Mouse 3 (individual animal)
[7] = female, Balb/c, mouse, brain, ip, 30 mg/kg
[8] = female, Balb/c, mouse, breast tissue including mammary gland, ip, 30 mg/kg
[9] = female, Balb/c, mouse, colon, ip, 30 mg/kg
[10] = female, Balb/c, mouse, kidney, ip, 30 mg/kg
[11] = female, Balb/c, mouse, kidneys, ip, 30 mg/kg
[12] = female, Balb/c, mouse, liver, ip, 30 mg/kg
[13] = female, Balb/c, mouse, lungs, ip, 30 mg/kg
[14] = female, Balb/c, mouse, ovaries, ip, 30 mg/kg
[15] = female, Balb/c, mouse, plasma, ip, 30 mg/kg

With CC[C@H](C)[C@H](NC(=O)[C@H](CC(C)C)NC(=O)[C@H](CC(=O)O)NC(=O)CNC(=O)[C@H](CCCNC(=N)N)NC(=O)[C@@H](NC(=O)[C@H](Cc1ccccc1)NC(=O)[C@H](Cc1ccc(O)cc1)NC(=O)[C@@H]1CCC(=O)NCC(=O)NCC(=O)N[C@@H](CCCNC(=N)N)C(=O)NCC(=O)N[C@@H](Cc2c[nH]cn2)C(=O)N[C@@H](C(C)C)C(=O)N2CCC[C@H]2C(=O)N1)C(C)C)C(=O)N[C@@H](CO)C(=O)N[C@@H](Cc1ccccc1)C(=O)N[C@@H](Cc1ccc(O)cc1)C(=O)N[C@@H](CCCCNC(=O)CCOCCOCCNC(=O)CCCc1ccc(I)cc1)C(=O)O [lassotide 47] (GGRGHVPEYFVRGDLISFYK([PEG2-Butanoyl(4-(4-I-phenyl))])-OH; lactam N-8) the Brain concentration [1] was 985 ng/g, the Colon concentration [1] was 6100 ng/g and the Kidneys concentration [1] was 11600 ng/g. It also gave a Liver concentration [1] of 4430 ng/g, a Mammary concentration [1] of 21700 ng/g and an Ovaries concentration [1] of 27800 ng/g. It also gave a Plasma Concentration [1] of 192 µg/mL, a Brain concentration [2] of 968 ng/g and a Colon concentration [2] of 6010 ng/g. It also gave a Kidneys concentration [2] of 11500 ng/g, a Liver concentration [2] of 4000 ng/g and a Lungs concentration [2] of 32400 ng/g. For the same molecule, the Mammary concentration [2] was 18900 ng/g, the Ovaries concentration [2] was 25700 ng/g and the Plasma Concentration [2] was 168 µg/mL. For the same molecule, the Brain concentration [3] was 756 ng/g, the Colon concentration [3] was 4370 ng/g and the Kidneys concentration [3] was 9960 ng/g. It also gave a Liver concentration [3] of 3250 ng/g, a Lungs concentration [3] of 36100 ng/g and a Mammary concentration [3] of 14800 ng/g. It also gave an Ovaries concentration [3] of 20800 ng/g, a Plasma Concentration [3] of 160 µg/mL and a Brain concentration [4] of 974 ng/g. For the same molecule, the Colon concentration [4] was 2940 ng/g, the Kidneys concentration [4] was 12200 ng/g and the Liver concentration [4] was 4440 ng/g. It also gave a Lungs concentration [4] of 41500 ng/g, a Mammary concentration [4] of 12200 ng/g and an Ovaries concentration [4] of 18700 ng/g. It also gave a Plasma Concentration [4] of 117 µg/mL, a Brain concentration [5] of 617 ng/g and a Colon concentration [5] of 2460 ng/g. It also gave a Kidneys concentration [5] of 8480 ng/g, a Liver concentration [5] of 2430 ng/g and a Lungs concentration [5] of 31300 ng/g. For the same molecule, the Mammary concentration [5] was 8100 ng/g, the Ovaries concentration [5] was 14700 ng/g and the Plasma Concentration [5] was 106 µg/mL. The Brain concentration [6] was 406 ng/g, the Colon concentration [6] was 2190 ng/g and the Kidneys concentration [6] was 6640 ng/g. For the same molecule, the Liver concentration [6] was 2230 ng/g, the Lungs concentration [6] was 16000 ng/g and the Mammary concentration [6] was 5390 ng/g. The Ovaries concentration [6] was 8870 ng/g, the Plasma Concentration [6] was 77 µg/mL and the tissue level at time at 3 h [7] was 903 ng/g. It also gave a tissue level at time at 8 h [7] of 666 ng/g, a tissue level at time at 3 h [8] of 18500 ng/g and a tissue level at time at 8 h [8] of 8560 ng/g. For the same molecule, the tissue level at time at 3 h [9] was 5490 ng/g, the tissue level at time at 8 h [9] was 2530 ng/g and the tissue level at time at 3 h [10] was 11000 ng/g. It also gave a tissue level at time at 8 h [10] of 9110 ng/g, a tissue level at time at 3 h [11] of 11000 ng/g and a tissue level at time at 8 h [11] of 9110 ng/g. The tissue level at time at 3 h [12] was 3890 ng/g, the tissue level at time at 8 h [12] was 3030 ng/g and the tissue level at time at 3 h [13] was 57200 ng/g. For the same molecule, the tissue level at time at 8 h [13] was 29600 ng/g, the tissue level at time at 3 h [14] was 24800 ng/g and the tissue level at time at 8 h [14] was 14100 ng/g. It also gave a level at 3 h [15] of 173 µg/mL and a level at 8 h [15] of 100 µg/mL.
